In patent US12590062B2, “PD-1/PD-L1 inhibitors” (Gilead Sciences, Inc., priority 2017, dated 2026) one finds EC50, AC50 and IC50 data, which are given here for 17 compounds.

One assay has as its target T1, PD-1/PD-L1 interaction (Homo sapiens, UniProt Q9NZQ7).
T1 construct: expressed in transfected cells; host or cells: CHO cells (aAPC-PD-L1) co-cultured with Jurkat cells overexpressing PD-1 and an NFAT-luciferase reporter
Briefly: PD-1/PD-L1 NFAT reporter co-culture assay. The following applies: Jurkat PD-1 NFAT-luciferase cells co-cultured with aAPC-PD-L1 CHO cells, 6 hrs at 37° C.; read-out: EC50 NFAT Luciferase. Format: cell-based. The essentials:
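First, CHO cells displaying anti-CD3 antibody and PD-L1 were plated overnight. Next, compound-treated PD-1 Jurkat NFAT-luciferase reporter cells in 2% FBS RPMI were added for 6 h at 37 °C. Finally, ONE-Glo luminescence was read and EC50 values fitted with a four-parameter equation.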

For another assay, the target named is T2, PD-L1 (Homo sapiens, UniProt Q9NZQ7).
T2 construct: determine if they can specifically dimerize the extracellular domains of PD-L1
Briefly: PD-L1/PD-L1 dimerization biochemical protein-protein interaction assay (ALPHA). The class given is binding. The following applies: compound-induced PD-L1 dimerization, head prints '1 nM' (0.5 nM His-tagged PD-L1 and 0.5 nM FLAG-tagged PD-L1), read-out: AC50 PDL1 Dimer Alpha 1 nM. Summed up: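 After 2 h at 25 °C with compound, His- and FLAG-tagged PD-L1 ECDs (each 0.5 nM final; 25 mM Hepes pH 7.4, 150 mM NaCl) were detected by sequential anti-His acceptor and anti-FLAG donor bead incubations. Dose-response curves fitted to four-parameter equation for AC50.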

The target in a further assay is PD-1/PD-L1 (Homo sapiens, UniProt Q9NZQ7). Briefly: PD-1/PD-L1 biochemical protein-protein interaction assay (ALPHA). Format: binding. The settings on record: 0.3 nM His tagged PD-L1, 2.5 nM biotinylated Fc-PD-1, 60 minutes at 25° C., read-out: IC50 PD-L1-PD-1 Alpha IC50-mono PD-L1-fcP-D1. The essentials: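 Bead proximity read-out: compound-driven loss of ALPHA signal between anti-His acceptor and streptavidin donor beads (20 μg/mL acceptor). Proteins: 0.3 nM His-PD-L1, 2.5 nM biotin-Fc-PD-1, final. 60 min, 25° C, Hepes pH 7.4 buffer. IC50 via four-parameter dose-response fit.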

Each structure is given as a SMILES string.

T1 sequence (Q9NZQ7 19-290): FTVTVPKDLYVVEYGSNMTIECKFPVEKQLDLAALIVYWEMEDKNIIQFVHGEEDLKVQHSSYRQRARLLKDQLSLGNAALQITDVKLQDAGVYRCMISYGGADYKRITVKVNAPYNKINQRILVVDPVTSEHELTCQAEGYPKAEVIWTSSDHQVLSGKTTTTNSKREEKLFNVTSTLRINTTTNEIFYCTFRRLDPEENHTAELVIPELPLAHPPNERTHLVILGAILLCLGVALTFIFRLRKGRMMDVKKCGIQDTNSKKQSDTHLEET
Chain of PD-1/PD-L1 (Q9NZQ7 19-238 limits assumed): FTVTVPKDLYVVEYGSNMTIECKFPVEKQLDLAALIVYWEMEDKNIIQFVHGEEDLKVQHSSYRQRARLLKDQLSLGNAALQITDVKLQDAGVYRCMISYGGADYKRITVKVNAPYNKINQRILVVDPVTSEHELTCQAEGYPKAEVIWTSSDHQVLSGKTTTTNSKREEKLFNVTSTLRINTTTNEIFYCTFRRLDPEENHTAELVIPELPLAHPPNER
T2 sequence (Q9NZQ7 19-238 limits assumed): as above
T2 sequence (Q9NZQ7 19-238 limits assumed): as above

As for `Cc1c(COc2cc(OCc3cncc(C#N)c3)c(CNCC3(O)CC3)cc2Cl)cccc1-c1cccc(-c2ccc(OCCNCCO)cc2)c1C` [Example 391, 5-((4-chloro-2-((((1-hydroxycyclopropyl)methyl)amino)methyl)-5-((4″-(2-((2-hydroxyethyl)amino)ethoxy)-2,2′-dimethyl-[1,1′:3′,1″-terphenyl]-3-yl)methoxy)phenoxy)methyl)nicotinonitrile], the EC50 on PD-1/PD-L1 interaction was found to be 305 nM. Besides, the AC50 at PD-L1 worked out at 243 nM. On PD-1/PD-L1, the IC50 was 1.42 nM.
`Cc1c(COc2cc(OCc3cncc(C#N)c3)c(CNC[C@@H](O)CC(=O)O)cc2Cl)cccc1-c1cccc(-c2ccc3c(CNC[C@@H](O)CC(=O)O)ccc(Cl)c3c2)c1C` [Example 359, (S)-4-(((6-(3′-((4-((((S)-3-carboxy-2-hydroxypropyl)amino)methyl)-2-chloro-5-((5-cyanopyridin-3-yl)methoxy)phenoxy)methyl)-2,2′-dimethyl-[1,1′-biphenyl]-3-yl)-4-chloronaphthalen-1-yl)methyl)amino)-3-hydroxybutanoic acid]: the EC50 at PD-1/PD-L1 interaction is 216 nM. The AC50 at PD-L1 amounted to 540 nM. Further, the 50% inhibitory concentration (IC50) on PD-1/PD-L1 came out at 2.11 nM.
Take `COc1nc(O[C@H]2CCc3c(-c4cccc(-c5ccc(CNC[C@@H]6CCC(=O)N6)cc5)c4Cl)cccc32)c(Cl)cc1CN1CCC[C@H](C(=O)O)C1` [Example 719]: at PD-1/PD-L1 interaction, the 50% effective concentration (EC50) turned out to be 110 nM. For the same compound, the half-maximal activity concentration (AC50) on PD-L1 is 32.7 nM. The IC50 on PD-1/PD-L1 is 0.064 nM.
Taken in the same sequence, the figures for `COc1nc(-c2cccc(-c3cccc(-c4ccc5[nH]c(CN(C)C)cc5c4)c3Cl)c2Cl)ccc1CNC[C@@H]1CCC(=O)N1` [Example 606] were no less than 50000 nM, 558 nM and 6.23 nM.
In the case of `COc1nc(-c2cccc(-c3cccc(-c4ccc5c(ccn5CCN(C)C)c4)c3Cl)c2Cl)ccc1CNC[C@@H]1CCC(=O)N1` [Example 598, (S)-5-((((6-(2,2′-dichloro-3′-(1-(2-(dimethylamino)ethyl)-1H-indol-5-yl)-[1,1′-biphenyl]-3-yl)-2-methoxypyridin-3-yl)methyl)amino)methyl)pyrrolidin-2-one], the EC50 on PD-1/PD-L1 interaction is 1840 nM. The half-maximal activity concentration (AC50) at PD-L1 was determined as 480 nM. For the same compound, the IC50 on PD-1/PD-L1 is 3 nM.
On to `C[C@@](CO)(NCc1cc(Cl)c(O[C@H]2CCc3c(-c4cccc5c4CC[C@@H]5Oc4nc(OCc5cc(C#N)cc(C#N)c5)c(CN[C@@](C)(CO)C(=O)O)cc4Cl)cccc32)nc1OCc1cc(C#N)cc(C#N)c1)C(=O)O` [Example 686], for which, on PD-1/PD-L1 interaction, the EC50 came out at 46 nM. Further, the AC50 on PD-L1 is 137 nM. The IC50 on PD-1/PD-L1 amounted to 0.282 nM.
The like results for `COc1nc(O[C@H]2CCc3c(-c4cccc(-c5ccc(C6=NCCN6)c(OC)n5)c4Cl)cccc32)c(Br)cc1CNC[C@@H](O)CC(=O)O` [Example 787] were, in that order, 58 nM, 35.4 nM and 0.066 nM.
The like results for `Cc1c(COc2nc(OCc3cncc(C#N)c3)c(CN[C@@](C)(CO)C(=O)O)cc2Cl)cccc1-c1cccc(-c2ccc(OCCNCCO)cc2)c1C` [Example 581] were, in that order, 158 nM, 60.3 nM and 0.182 nM.
Taken in the same sequence, the figures for `Cc1c(COc2cc(OCc3cncc(C#N)c3)c(CNC[C@@H](O)CC(=O)O)cc2Cl)cccc1-c1cccc(-c2ccc(OCCN3CC4(CCC(=O)N4)C3)cc2)c1C` [Example 519] were 125 nM, 103 nM and 0.064 nM.
Take `Cc1c(COc2cc(OCc3cncc(C#N)c3)c(CNC[C@@H](O)CC(=O)O)cc2Cl)cccc1-c1cccc(-c2cnc3c(Cl)cc(CNC[C@@H](O)CC(=O)O)cc3c2)c1C` [Example 297, (S)-4-(((3-(3′-((4-((((S)-3-carboxy-2-hydroxypropyl)amino)methyl)-2-chloro-5-((5-cyanopyridin-3-yl)methoxy)phenoxy)methyl)-2,2′-dimethyl-[1,1′-biphenyl]-3-yl)-8-chloroquinolin-6-yl)methyl)amino)-3-hydroxybutanoic acid]: at PD-1/PD-L1 interaction, the EC50 is 266 nM. In addition, the concentration at half-maximal activity (AC50) at PD-L1 worked out at 187 nM. For the same compound, the IC50 at PD-1/PD-L1 is 0.187 nM.
On to `Cc1c(COc2cc(OCc3cncc(C#N)c3)c(CNC[C@@H](O)CC(=O)O)cc2Cl)cccc1-c1cccc(-c2ccc(CCN3CCCC3)cc2)c1C` [Example 300, (S)-4-((5-chloro-2-((5-cyanopyridin-3-yl)methoxy)-4-((2,2′-dimethyl-4″-(2-(pyrrolidin-1-yl)ethyl)-[1,1′:3′,1″-terphenyl]-3-yl)methoxy)benzyl)amino)-3-hydroxybutanoic acid], for which the EC50 at PD-1/PD-L1 interaction came to 3720 nM. Further, the half-maximal activity concentration (AC50) at PD-L1 was 223 nM. Besides, the IC50 on PD-1/PD-L1 was 0.673 nM.
The like results for `COc1cc(-c2cccc(-c3cccc(-c4cc(F)c(CNC[C@@H]5CCC(=O)N5)c(OC)c4)c3Cl)c2Cl)cc(F)c1CNC[C@@H]1CCC(=O)N1` [Example 512] were, in that order, 131 nM, 255 nM and 0.526 nM.
Consider `Cc1c(COc2cc(OCc3cncc(C#N)c3)c(CNC[C@@H](O)CC(=O)O)cc2Cl)cccc1-c1cccc(-c2ccc(C3=NCCN3)c(OC(F)F)c2)c1C` [Example 464], for which the EC50 on PD-1/PD-L1 interaction stood at 152 nM. Further, the AC50 on PD-L1 was determined as 87.6 nM. Also, the IC50 on PD-1/PD-L1 was 0.099 nM.
Turning to `Cc1c(COc2cc(OCc3cncc(C#N)c3)c(CNC[C@@H](O)CC(=O)O)cc2Cl)cccc1-c1cccc(-c2ccc(CNCc3cncc(C#N)c3)cc2)c1C` [Example 326, (S)-4-((5-chloro-2-((5-cyanopyridin-3-yl)methoxy)-4-((4″-((((5-cyanopyridin-3-yl)methyl)amino)methyl)-2,2′-dimethyl-[1,1′:3′,1″-terphenyl]-3-yl)methoxy)benzyl)amino)-3-hydroxybutanoic acid], the half-maximal effective concentration (EC50) at PD-1/PD-L1 interaction is 439 nM. Also, the AC50 on PD-L1 is 1210 nM. The IC50 at PD-1/PD-L1 worked out at 1.15 nM.
For the compound `COc1nc(-c2cccc(-c3cccc(-c4ccc5ncc(CNC[C@@H](O)CC(=O)O)n5c4)c3Cl)c2Cl)ccc1CNC[C@@H](O)CC(=O)O` [Example 621], the EC50 at PD-1/PD-L1 interaction was no less than 50000 nM. The AC50 on PD-L1 was no less than 10000 nM. At PD-1/PD-L1, the IC50 was determined as 1.04 nM.
Taken in the same sequence, the figures for `N#Cc1cc(C#N)cc(COc2nc(OCc3cccc(-c4cccc(-c5ccc(OCCNCCO)cc5)c4Cl)c3Cl)c(Cl)cc2CNC[C@@H](O)CC(=O)O)c1` [Example 351, (S)-4-(((5-chloro-6-((2,2′-dichloro-4″-(2-((2-hydroxyethyl)amino)ethoxy)-[1,1′:3′,1″-terphenyl]-3-yl)methoxy)-2-((3,5-dicyanobenzyl)oxy)pyridin-3-yl)methyl)amino)-3-hydroxybutanoic acid] were 235 nM, 168 nM and 0.982 nM.
For the compound `Cc1c(COc2cc(OCc3cncc(C#N)c3)c(CN[C@@](C)(CO)C(=O)O)cc2Cl)cccc1-c1cccc(COc2cc(OCc3cncc(C#N)c3)c(CN[C@@](C)(CO)C(=O)O)cc2Cl)c1Br` [Example 481], the 50% effective concentration (EC50) at PD-1/PD-L1 interaction is 155 nM. The half-maximal activity concentration (AC50) on PD-L1 worked out at 92.9 nM. Besides, the IC50 at PD-1/PD-L1 is 0.064 nM.
